Measured values taken from PubChem BioAssay (NCI).
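The compound was tested at five concentrations on cells cultured in 96-well plates, with a 48-hour exposure period. TGI is the concentration that stops growth completely.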

Assays:
Experiment in all cases: inhibition of tumour cell growth, NCI panel, 48 h
ACHN renal = test system: ACHN renal
CAKI-1 renal = test system: CAKI-1 renal
COLO 205 colon = test system: COLO 205 colon
DLD-1 colon = test system: DLD-1 colon
HL-60(TB) leukemia = test system: HL-60(TB) leukemia
HOP-18 NSCLC = test system: HOP-18 NSCLC
NCI-H23 lung = test system: NCI-H23 lung
OVCAR-5 ovarian = test system: OVCAR-5 ovarian
OVCAR-8 ovarian = test system: OVCAR-8 ovarian
RXF 393 renal = test system: RXF 393 renal
SK-MEL-5 melanoma = test system: SK-MEL-5 melanoma
SK-OV-3 ovarian = test system: SK-OV-3 ovarian
SN12C renal = test system: SN12C renal
SNB-19 CNS = test system: SNB-19 CNS
TK-10 renal = test system: TK-10 renal
UACC-257 melanoma = test system: UACC-257 melanoma
UO-31 renal = test system: UO-31 renal
XF 498 CNS = test system: XF 498 CNS
HOP-62 NSCLC = test system: HOP-62 NSCLC
OVCAR-3 ovarian = test system: OVCAR-3 ovarian

Row | SMILES | TGI (ACHN renal) [µM] | TGI (CAKI-1 renal) [µM] | TGI (COLO 205 colon) [µM] | TGI (DLD-1 colon) [µM] | TGI (HL-60(TB) leukemia) [µM] | TGI (HOP-18 NSCLC) [µM] | TGI (NCI-H23 lung) [µM] | TGI (OVCAR-5 ovarian) [µM] | TGI (OVCAR-8 ovarian) [µM] | TGI (RXF 393 renal) [µM] | TGI (SK-MEL-5 melanoma) [µM] | TGI (SK-OV-3 ovarian) [µM] | TGI (SN12C renal) [µM] | TGI (SNB-19 CNS) [µM] | TGI (TK-10 renal) [µM] | TGI (UACC-257 melanoma) [µM] | TGI (UO-31 renal) [µM] | TGI (XF 498 CNS) [µM] | TGI (HOP-62 NSCLC) [µM] | TGI (OVCAR-3 ovarian) [µM]
1 | CC1=CC[C@H](C)C(C)(C)C1/C=C/C(C)=C/CC[C@@]1(CO)[C@H](CCCO)/C(=C(/C)C=O)CC[C@]1(C)O (stereo partly drawn) | 16.6 | 10.5 | 3.51 | 15.1 | 7.79 | 28.9 | 23 | 38.2 | 32.9 | 28.1 | 4.26 | 39.9 | 19.1 | 21.4 | 15.3 | 28.8 | 21.2 | 19.9 | – | –
2 | C=C1C(C[C@@H]2O[C@H]3C[C@H]4O[C@@]5(C[C@@H]6O[C@]7(C[C@H](C)[C@@H]8O[C@@H]9CC(C(O)CO)O[C@@H]9C[C@@H]8O7)C[C@H](C)[C@@H]6O5)C[C@H]4O[C@H]3[C@H](C)[C@H]2O)O[C@@H](CC[C@@H]2O[C@@H](CC[C@@]34CC5O[C@H]6C(O[C@H]7CC[C@H](CC(=O)OC)O[C@@H]7[C@@H]6O3)[C@H]5O4)CC2=C)C[C@H]1C (stereo partly drawn) | > 1 | > 1 | 0.0035 | – | > 1 | – | – | > 1 | 0.0125 | > 1 | 0.0559 | > 1 | > 1 | > 1 | > 1 | > 1 | > 1 | – | > 1 | > 1
3 | COc1cccc(NC(=O)N/C(=C/c2ccc(N(CCC#N)CCC#N)cc2)NC(=O)c2cc([N+](=O)[O-])ccc2Cl)c1 | > 100 | > 100 | > 100 | > 100 | – | > 100 | > 100 | > 100 | > 100 | > 100 | > 100 | > 100 | > 100 | > 100 | > 100 | – | > 100 | > 100 | > 100 | > 100
4 | O=S(=O)(O)c1ccc(N=Nc2ccc(N=Nc3ccc(/C=C/c4ccc(N=[N+]([O-])c5ccc(/C=C/c6ccc(N=Nc7ccc(N=Nc8ccc(S(=O)(=O)O)cc8)c8ccccc78)cc6S(=O)(=O)O)c(S(=O)(=O)O)c5)cc4S(=O)(=O)O)c(S(=O)(=O)O)c3)c3ccccc23)cc1 | – | – | > 100 | > 100 | > 100 | > 100 | > 100 | > 100 | > 100 | > 100 | > 100 | > 100 | > 100 | – | – | > 100 | > 100 | > 100 | > 100 | > 100
